“Also recorded” adds a separate entry of the source. Read-outs that look alike come from different tables or passages of the source. [ ]: non-standard residue; d: D form.
What was measured:
transthyretin (TTR) = biological target: T1, transthyretin (TTR) (Homo sapiens, UniProt P02766); assay: TTR fibrillization assay (Congo red binding); type: biochemical; conditions: peptide without regard to TTR; prevents solution TTR assay
T1 construct: purchased Lee Biosolutions, St. Louis Mo; 496-11
Procedure: Aliqouts of transthyretin (TTR) (496-11; Lee Biosolutions, St. Louis Mo.) were made from a 1 mg/mL solution 20 mM ammonium carbonate, pH 8. Aliquots were lyophilized and stored at −18° C. Prior to use, TTR was dissolved to 80 μM (monomer) in acetate buffer (50 mM potassium acetate, 100 mM potassium chloride pH 4.5) and sonicated for 10 minutes. The stock solution was centrifuged before use. Peptide designs were added to stock TTR to a final TTR concentration of 40 μM (monomer) in acetate buffer (pH 4.5) in 500 μL microcentrifuge tubes, which were incubated at 37° C. Periodically, samples were collected from the TTR:peptide mixture by briefly centrifuging, and then carefully pipetting the solution up and down prior to withdrawing a 10 μL sample and diluting it in 190 μL of 10 μM Congo red in an individual well of a 96-well assay plate. Each measurement was performed in triplicate. Absorbance measurements were taken at 477 and 540 nm. Relative Congo red binding was determined using the method of Klunk et al. using the relationship: rCb=(Abs540/25,295)−(Abs477/46,306) (40). All datapoints were normalized to the value recorded for TTR alone pH 4.5 at 48 hrs.
The “control” designs were tested as general inhibitors against the Amyloid β 1-42 peptide (Aβ) (panel A), the islet amylin polypeptide (IAPP, or amylin, which is implicated in type 2 diabetes) (panel B), and transthyretin (TTR) (panel C) amyloidosis (FIG. 6). […] As described in Example 1, a Thioflavin T (ThT) fluorescence assay was used to monitor Aβ and IAPP aggregation. A Congo Red dye-binding assay was used to monitor TTR fibrillization. For inhibition against Aβ, peptides were co-incubated at 4-fold excess of Aβ at RT in neutral pH buffer containing ThT. Note that the results for α1 differ somewhat from what are included in Example 1 because the assay conditions were altered slightly to slow the process down to favor oligomerization of Aβ (rather than fibril elongation) by lowering the temperature to 25° C. […] For inhibition against IAPP, peptides were co-incubated at 8-fold excess of IAPP at 37° C. in neutral pH buffer containing 20 μM ThT. For inhibition against TTR, peptides were co-incubated at 10-fold excess of monomeric TTR.

toxic oligomer = assay: Binding of toxic oligomer by peptide immobilized to agarose beads (Examples 2 and 3)
Procedure: Peptide designs were immobilized to the Pierce Amino Link resin following the manufacturer's instructions. Peptides were immobilized in a volume of 200 μL of coupling buffer (100 mM sodium phosphate, 150 mM sodium chloride, pH 7.2) and 2 μL cyanoborohydride solution (5 M sodium cyanoborohydride in 1 M NaOH) at a concentration of 358 μM overnight at 4° C. Any residual active sites were blocked with 400 μL quenching buffer (1 M tris hydrochloride, pH 7.4) and 4 μL cyanoborohydride solution for 4 hours at 25° C. Binding experiments were performed from 200 μL amyloid solution (5 μM Aβ or 20 μM TTR (monomer) diluted to the desired concentration in coupling buffer), which was allowed to bind to the peptide-bound agarose beads for 2 h at 25° C. The solution was then collected by centrifugation (flow through, FT). The beads were resuspended in 300 μL coupling buffer, vortexed to obtain an uniform slurry, and the solution was again collected by centrifugation (wash 1, W1). The wash step was performed an additional five times (W2-W6). One final wash step was performed but after resuspending the resin, the solution was allowed to sit for 5 minutes before centrifugation (W7). The resin was next resuspended in 100 μL 2M guanidine hydrochloride, incubated for 5 minutes at room temperature, then collected as before. This was performed twice (E1-E2). The resin was washed again with 300 μL coupling buffer (W8) followed by two elution steps with 6M guanidine hydrochloride (E3-E4). One final wash step was performed with 300 μL coupling buffer (W9). All collected eluents were analyzed by applying triplicate 1 μL spots to nitrocellulose, and then performing standard dot blot analysis as described by Kayed et al. (9) with an anti-TTR (sc-13098, Santa Cruz Biotechnology, Santa Cruz, Calif.) or anti-Aβ (ab39377; Abeam Inc, Cambridge, Mass.) primary antibody diluted 1:1.000 in 5% or 10% nonfat milk, respectively.
Three α-sheet designs are addressed in Example 1, but many more have been evaluated using these same assays and structural methods. FIG. 5 contains a list of other designed α-sheet peptides, both linear and cyclic (specifically peptides #3-5 and #8-9), as well as other control, non-α-sheet designs (peptides #17-18, 20). In addition, FIG. 5 contains ‘control’ designs aimed at reverse engineering the α1 design, which is presented in more detail in Example 3. […] Random primary sequences of amino acids are active in the polypeptides of the invention; these same primary sequences are not active if the polypeptide is provided in an entirely L-amino acid peptide or if the L/D amino acids are randomly distributed within the polypeptide such that they are not alternating (i.e. if they are not polypeptides according to the invention). […] They also all inhibit aggregation and/or bind the toxic oligomer. Some of the polypeptides are insoluble and the solution assay can't be performed, but they do bind the targeted toxic oligomer when they are immobilized to agarose beads to promote solubilization. • Thus, this provides further evidence that the primary amino acid sequence per se is not determining structure and activity, the L/D patterning is. However, the sequence modulates the activity and solubility properties. • Both cyclic and linear designs with different sequences form α-sheet polypeptides, inhibit aggregation, and bind the toxic oligomer. […] (See peptides #1 and #7.) Note, however, that the charges can modulate the level of activity. • Next, consider all 14 designed peptides with the L/D turn template, they are all active. Some have issues with solubility but they all form α-sheet and are active amyloid inhibitors in solution and/or binding of the toxic oligomer. These designs are both linear and cyclic peptides designed to be hairpins. The sequence identity relative to ldas90 (peptide #1) ranges from 9-91% across these 14 designs with an average of 43%. […]

[1] = test system: Aβ, IAPP and TTR amyloidosis / toxic oligomer; assay: Inhibitory activity summary: inhibition of aggregation and/or binding of toxic oligomer; type: biochemical; conditions: for inhibition of aggregation (FIG. 6): Aβ, IAPP, TTR panels; for inhibitor quality compared with ldas90: FIG. 6 / FIG. 7
Procedure: In addition, FIG. 5 contains ‘control’ designs aimed at reverse engineering the α1 design, which is presented in more detail in Example 3. […] These designs are both linear and cyclic peptides designed to be hairpins.
The “control” designs were tested as general inhibitors against the Amyloid β 1-42 peptide (Aβ) (panel A), the islet amylin polypeptide (IAPP, or amylin, which is implicated in type 2 diabetes) (panel B), and transthyretin (TTR) (panel C) amyloidosis (FIG. 6). […] As described in Example 1, a Thioflavin T (ThT) fluorescence assay was used to monitor Aβ and IAPP aggregation. A Congo Red dye-binding assay was used to monitor TTR fibrillization. For inhibition against Aβ, peptides were co-incubated at 4-fold excess of Aβ at RT in neutral pH buffer containing ThT. […] For inhibition against IAPP, peptides were co-incubated at 8-fold excess of IAPP at 37° C. in neutral pH buffer containing 20 μM ThT. For inhibition against TTR, peptides were co-incubated at 10-fold excess of monomeric TTR.
The data in FIG. 6 were normalized to ThT fluorescence of the negative (uninhibited) control (black squares). Inhibition traces are ordered vertically according to sequence identity to α1 (see Table 1). Sigmoidal fits to data are included. Controls are identical throughout a single panel, and traces for inhibition samples are colored while the uninhibited aggregation profiles are in black.

Substance	Congo red binding by the peptide itself (transthyretin (TTR))	binds toxic oligomer when immobilized (toxic oligomer)	Inhibits Aggregation and/or binds oligomer? [1]	inhibition of aggregation (FIG. 6) [1]	further results
Ac-AQQiEcItNVWDKEItMyFnVSE-NH2 (Ac-AQQ[dI]E[dC]L[dT]NVWDKEL[dT]M[dY]F[dN]VSE-NH2; not fully specified) [peptide #11]	bind Congo Red	do bind toxic oligomer	yes	weak	Inhibits Aggregation and/or binds oligomer? ([1]; listed as Control 3): active
Ac-MNWESkGEwIRMRYGtmLSNGnM-NH2 (Ac-MNWES[dK]GE[dW]LRMRYG[dT][dM]LSNG[dN]M-NH2; SMILES CSCC[C@H](NC(=O)[C@@H](CC(N)=O)NC(=O)CNC(=O)[C@H](CC(N)=O)NC(=O)[C@H](CO)NC(=O)[C@H](CC(C)C)NC(=O)[C@@H](CCSC)NC(=O)[C@H](NC(=O)CNC(=O)[C@H](Cc1ccc(O)cc1)NC(=O)[C@H](CCCNC(=N)N)NC(=O)[C@H](CCSC)NC(=O)[C@H](CCCNC(=N)N)NC(=O)[C@H](CC(C)C)NC(=O)[C@@H](Cc1c[nH]c2ccccc12)NC(=O)[C@H](CCC(=O)O)NC(=O)CNC(=O)[C@@H](CCCCN)NC(=O)[C@H](CO)NC(=O)[C@H](CCC(=O)O)NC(=O)[C@H](Cc1c[nH]c2ccccc12)NC(=O)[C@H](CC(N)=O)NC(=O)[C@H](CCSC)NC(C)=O)[C@H](C)O)C(N)=O) [peptide #19]	bind Congo Red	does not	no		Inhibits Aggregation and/or binds oligomer? ([1]; listed as Control2): inactive
Ac-RGEMNLSWMNEYSGWTMNLKMGR-NH2 (not fully specified (residues 4, 6, 8, 16, 18, 20); printed as Ac-RGEMNLSWMNEYSGWTMNLKMGR-NH2) [peptide #20, all L-amino acid version of ldas90]			no		Inhibits Aggregation and/or binds oligomer? ([1]; listed as llas90): inactive
Ac-RGEaWmYiKNNLSETmMsNmWGR-NH2 [peptide #12]	bind Congo Red		yes	inhibits aggregation	binds toxic oligomer when immobilized (toxic oligomer; listed as Control 6): do bind toxic oligomer; binds toxic oligomer when immobilized (toxic oligomer; listed as Control6): binds the toxic oligomer; Inhibits Aggregation and/or binds oligomer? ([1]; listed as Control6): active
Ac-RGNwNeSkMNEYSGWmLmLtMGR-NH2 (Ac-RGN[dW]N[dE]S[dK]MNEYSGW[dM]L[dM]L[dT]MGR-NH2; SMILES CSCC[C@H](NC(=O)[C@@H](CCCCN)NC(=O)[C@H](CO)NC(=O)[C@@H](CCC(=O)O)NC(=O)[C@H](CC(N)=O)NC(=O)[C@@H](Cc1c[nH]c2ccccc12)NC(=O)[C@H](CC(N)=O)NC(=O)CNC(=O)[C@H](CCCNC(=N)N)NC(C)=O)C(=O)N[C@@H](CC(N)=O)C(=O)N[C@@H](CCC(=O)O)C(=O)N[C@@H](Cc1ccc(O)cc1)C(=O)N[C@@H](CO)C(=O)NCC(=O)N[C@@H](Cc1c[nH]c2ccccc12)C(=O)N[C@H](CCSC)C(=O)N[C@@H](CC(C)C)C(=O)N[C@H](CCSC)C(=O)N[C@@H](CC(C)C)C(=O)N[C@@H](C(=O)N[C@@H](CCSC)C(=O)NCC(=O)N[C@@H](CCCNC(=N)N)C(N)=O)[C@H](C)O) [peptide #6]		binds the toxic oligomer	yes	good inhibitor	inhibitor quality compared with ldas90 [1]: as good as ldas90 (peptide #1) with capped ends; also recorded: better than ldas90 with charged ends (peptide #7); inhibitor quality compared with ldas90 ([1]; listed as Control5): as active; Inhibits Aggregation and/or binds oligomer? ([1]; listed as Control5): active
Ac-WRPwAiDgMNTBKQRkAsVyLQP-NH2 [peptide #13]	bind Congo Red	do bind toxic oligomer	yes		Inhibits Aggregation and/or binds oligomer? ([1]; listed as Control 4): active
RGEmNlSwMNEYSGWtMnLkMGR [peptide #7]			demonstrate activity		

From patent US9896487B2, “Amyloidosis-inhibiting polypeptides and their use” (UNIVERSITY OF WASHINGTON THROUGH ITS CENTER FOR …, priority 2013, dated 2018)
